# Data published in US20030008857A1, “Photodynamic therapy (PDT) in combination with factors that bind cell surface apoptosis-inducing receptors” (priority 1999, published 2003).
# Entries after “also recorded” stand apart in the source; their conditions may differ.
# Legend:
# Assay type in all cases: cell-based, human
# caspase-3, -6 and -8 = assay: Caspase cleavage activity of cell extracts, statements covering DEVD, VEID and IETD peptides together; details: for protease activity on DEVD, VEID and IETD peptides, single treatment: FIG. 7: verteporfin 5 ng/ml with light, FasL 7.5 ng/ml or TRAIL 20 ng/ml alone
# Description: (§1) The human Jurkat T cell line containing a neomycin resistance gene was obtained from Dr. Charles Rudin (University of Chicago). Cells were maintained in RPMI 1640 medium containing 10% heat-inactivated fetal calf serum (FCS) with penicillin (100 U/mL), streptomycin (100 μg/mL), 20 mM HEPES, 2 mM L-glutamine and G418 (1 μg/ml) purchased from Gibco BRL (Burlington, Ontario) in a CO2 incubator at 37° C. To elicit apoptosis with PDT, Jurkat cells were incubated with different amounts of liposomally formulated benzoporphyrin derivative monoacid ring A (BPD-MA, verteporfin, QLT PhotoTherapeutics, Inc., Vancouver, Canada) for one hour at 37° C. under light-protected conditions. The culture medium used for experiments was identical to that used for the passage of the cells except that FCS was used at a concentration of 5%. Experiments were conducted either in 6-well culture plates at 5×10^6 cells in a volume of 4 ml per well or in 96-well microtiter plates at 1×10^5 cells per well at 0.2 ml per well. Cells were irradiated with light of a wavelength of 690 nm delivered at 65-73 mW/sec from light emitting diodes (LED) to achieve a total light dose of 5 J/cm^2. Cells were returned to the incubator until required for analysis.
# (§2) FasL and TRAIL as used were recombinant preparations. FasL was obtained from Upstate Biotechnology (Lake Placid NY) and corresponded to amino acids 103-281 of the soluble domain of human FasL. TRAIL was obtained from BIOMOL Research Laboratories (Plymouth Meeting, Pa.) and corresponded to residues 114-281 of the soluble domain of human TRAIL. FasL and TRAIL were usually added immediately following the treatment of cells with PDT, although in one series of experiments these factors were added at 1, 2 or 3 hours post-irradiation.
# (§3) Whole cell lysates were prepared by washing 1×10^7 cells per sample twice with ice-cold PBS. Cells were disrupted with 1 mL of lysis buffer [1% Nonidet P-40 detergent (NP-40), 20 mM Tris-HCl, pH 8.0, 137 mM NaCl, 10% glycerol, 1 mM phenylmethylsulfonyl fluoride (PMSF) aprotinln (0.15 U/mL) and 1 mM sodium orthovanadate] for 20 minutes on ice. Lysates were centrifuged for 10 minutes at 15,800×g at 4° C.
# These sequences are denoted by letter codes for each amino acid. To evaluate relative DEVDase (caspases 3 and 7), VEIDase (caspase 6) and IETDase (caspase 8) cleavage activity, Jurkat cell lysates were incubated with caspase-specific fluorescent substrates as described by Granville et al. (“Photodynamic therapy induces caspase-3 activation in HL-60 cells”, Cell Death Differ., 4, 623-629 (1997)). Briefly, lysates were incubated with reaction buffer (20 mM Tris pH 7.5, 137 mM NaCl, 1% NP-40, 10% glycerol) containing 100 μM of the caspase substrates Ac-DEVD-AMC (Calbiochem, Cambridge, Mass.), Ac-VEID-AMC (Calbiochem, Cambridge, Mass.), Ac-lETD-AMC (BIOMOL, Plymouth Meeting Pa.), and Ac-LEHD-AMC (Calbiochem, Cambridge, Mass.). The letter codes for the amino acid residues present within the inhibitor peptides are as following: D=aspartic acid; E=glutamic acid; H=histidine; I=isoleucine; T=threonine; V=valine. The reaction mixture was incubated at 37° C. for 1 (DEVD.AMC) or 24 (VEID.AMC and IETH.AMC) h and fluorescence was measured using an excitation at 380 nm and an emission wavelength of 460 nm with a CytoFluor™ 2350 fluorescent measuring system (Perseptive Biosystems, Burlington, Ont).
# [1] = system: DEVDase (caspases 3 and 7); assay: Protease assay of cell extracts with Ac-DEVD-AMC; details: TRAIL 20 ng/ml, 3 hours, Jurkat whole cell extracts
# Description: as §1, with “Cells were irradiated with light of a wavelength of 690 nm delivered at 65-73 mW/sec from light emitting diodes (LED) to achieve a total light dose of 5 J/cm^2. Cells were returned to the incubator until required for analysis.” left out
# (§4) These sequences are denoted by letter codes for each amino acid. […] The reaction mixture was incubated at 37° C. for 1 (DEVD.AMC) or 24 (VEID.AMC and IETH.AMC) h and fluorescence was measured using an excitation at 380 nm and an emission wavelength of 460 nm with a CytoFluor™ 2350 fluorescent measuring system (Perseptive Biosystems, Burlington, Ont).
# IETDase (caspase 8) = assay: Protease assay of cell extracts with Ac-IETD-AMC; details: TRAIL 20 ng/ml, 3 hours, Jurkat whole cell extracts
# Description: as §1, with “Cells were irradiated with light of a wavelength of 690 nm delivered at 65-73 mW/sec from light emitting diodes (LED) to achieve a total light dose of 5 J/cm^2. Cells were returned to the incubator until required for analysis.” left out
# as §4
# [2] = system: caspase-3, -6, -8 and -9 and PARP; assay: Western immunoblot of caspase processing and PARP cleavage in Jurkat cells
# Description: as §1, §2, §3
# To evaluate the activation state of different caspases and the status of other cellular proteins, whole cell lysates were separated by sodium dodecyl sulphate polyacrylamide gel electrophoresis (SDS-PAGE). Specifically, detergent-soluble proteins were separated by SDS-PAGE within 10% gels under reducing conditions as described by Laemmli et al. (“Cleavage of Structural Proteins During the Assembly of the Head of Bacteriophage T4”, Nature, 227, 680-685 (1970)). The proteins were transferred to nitrocellulose membranes at 100 volts for one hour. […]
# cytochrome c = assay: Cytochrome c in cytosolic extracts of Jurkat cells (immunoblot)
# Description: as §1, §2
# To obtain cytosolic extracts, cells were treated with 0.6 ml of ice-cold buffer [250 mM sucrose, 20 mM Hepes pH 7.4, 10 mM KCl, 1.5 mM MgCl2, 1 mM EGTA, 1 mM EDTA, 1 mM dithiothreitol, 1 mM PMSF and aprotinin (10 μg/ml)]. Cells were disrupted by 20 strokes with the B pestle of a Kontes™ dounce homogenizer. Supernatant collected following centrifugation at 10000×g was further centrifuged at 100000×g for 1 h at 4° C. in a Beckman Optima™ ultracentrifuge using a TL-100 rotor. (Granville et al., “Rapid cytochrome c release, activation of caspases 3, 6, 7 and 8 followed by Bap31 cleavage in HeLa cells treated with photodynamic therapy”, FEBS Lett. 437, 5-10 (1998)).
# To evaluate the activation state of different caspases and the status of other cellular proteins, whole cell lysates were separated by sodium dodecyl sulphate polyacrylamide gel electrophoresis (SDS-PAGE). […]
# VEIDase (caspase 6) = assay: Protease assay of cell extracts with Ac-VEID-AMC; details: TRAIL 20 ng/ml, 3 hours, Jurkat whole cell extracts
# Description: as §1, with “Cells were irradiated with light of a wavelength of 690 nm delivered at 65-73 mW/sec from light emitting diodes (LED) to achieve a total light dose of 5 J/cm^2. Cells were returned to the incubator until required for analysis.” left out
# as §4
# [3] = FasL 7.5 ng/ml or TRAIL 20 ng/ml, 3 hours
Substance,"caspase activity compared with the treatments given independently (caspase-3, -6 and -8; FIG. 7: factor combined with PDT (verteporfin 5 ng/ml, 5 J/cm^2), 3 hours)","protease activity on DEVD, VEID and IETD peptides, single treatment (caspase-3, -6 and -8; 3 hours)","caspase activity compared with PDT or TRAIL applied independently (caspase-3, -6 and -8; TRAIL 20 ng/ml plus PDT, each verteporfin concentration, 3 hours)","protease activity compared with FasL or TRAIL alone (caspase-3, -6 and -8; factor plus verteporfin in the absence of light irradiation)",increase in DEVDase-like activity versus control cells [1],increase in IETDase-like activity versus control cells (IETDase (caspase 8)),"caspase processing and PARP degradation compared with PDT or the factor alone ([2]; FasL 7.5 ng/ml or TRAIL 20 ng/ml combined with verteporfin PDT, 3 hours)","processing of caspases and PARP by the factor alone [2, 3]","cytochrome c in cytosolic extracts, factor alone (cytochrome c; [3])","cytochrome c in cytosolic extracts, factor with PDT (cytochrome c; PDT in combination with TRAIL 20 ng/ml or FasL 7.5 ng/ml, 3 hours)",increase in VEIDase-like activity versus control cells (VEIDase (caspase 6)),"verteporfin concentration at which the effect of PDT on caspase activity was greatest (caspase-3, -6 and -8; light 5 J/cm^2, extracts 3 hours post-PDT)","effect of PDT alone on DEVDase-, VEIDase- and IETDase-like activity (caspase-3, -6 and -8; verteporfin and light 5 J/cm^2, no FasL or TRAIL, 3 hours post-PDT)","caspase processing after PDT alone ([2]; increasing verteporfin concentrations, 5 J/cm^2, 3 hours after irradiation)","caspase-3, -8, -9 and PARP processing after PDT alone ([2]; verteporfin 5 ng/ml, 5 J/cm^2, 3 hours (FIG. 8))","cytochrome c in cytosolic fractions, immediately versus three hours after photoirradiation (cytochrome c; verteporfin and light 5 J/cm^2)","cytochrome c within the cytosolic fraction (cytochrome c; verteporfin and light 5 J/cm^2, extracts prepared immediately afterward)"
"TRAIL: recombinant, residues 114-281 of the soluble domain of human TRAIL (BIOMOL)",higher caspase activity,modestly increased,higher,no different,approximately four-fold,two-fold,more extensive caspase processing and PARP degradation; also recorded: a higher degree of processing,minor processing; also recorded: little detectable processing,background levels of cytochrome c,readily detectable amounts of cytochrome c,two-fold,,,,,,
"benzoporphyrin derivative monoacid ring A [verteporfin, reference compound]",,modestly increased,,,,,,,,,,5 ng/mL,"promoted DEVDase-like, VEIDase-like and IETDase-like activity; also recorded: increased levels of DEVDase-like, VEIDase-like and IETDase-like activity","evidence of caspase-3, -6, -8 and -9 processing; also recorded: processing of caspases-3, -6, -8 and -9",a moderate degree,comparable levels of cytochrome c,immediate appearance of cytochrome c
